Earlier results as cited in PubChem BioAssay AID1259409 (Chemical Carcinogenesis Research Information System (CCRIS), 2018).

System: rodent chemically induced tumor inhibition, incidence and multiplicity
Test: CCRIS tumor inhibitor studies
Details: Carcinogen: N-METHYL-N-NITROSOUREA, 684-93-5, Route [Inhibitor]: ORAL, Promoter: NONE USED

## CC1=C(/C=C/C(C)=C/C=C/C(C)=C/C(=O)NCCO)C(C)(C)CCC1
Dose [Inhibitor]: 2 MMOL/KG DIET DAILY STARTING 12 D AFTER CARCINOGEN TREATMENT THROUGH ABOUT 8 MO AFTER CARCINOGEN DOSE (STUDY DURATION:, Species: RAT, Strain/Sex: F344/MALE, Target Tissue: Type of Lesion: COLON: ADENOMA, Dose [Carcinogen]: 2.5 MG 1/WK FOR 2 WK
  tumour outcome (control, treated, inhibition, significance): 16/39 (41%), 12/30 (40%), 5%, not significant
Dose [Inhibitor]: 343 MG/KG DIET DAILY STARTING 1 WK AFTER LAST CARCINOGEN TREATMENT AND CONTINUING FOR 6 MO (STUDY DURATION: 9 MO), Species: HAMSTER, Strain/Sex: SYRIAN/MALE, Target Tissue: Type of Lesion: TRACHEA: BENIGN EPITHELIAL NEOPLASM, Dose [Carcinogen]: 0.5% IN 1 ML PHOSPHATE-BUFFERED SALINE 1/WK FOR 12 WK
  tumour outcome (control, treated, inhibition, significance): 6/63 (10%), 6/62 (10%), 0%, not significant
Dose [Inhibitor]: 343 MG/KG DIET DAILY STARTING 1 WK AFTER LAST CARCINOGEN TREATMENT AND CONTINUING FOR 6 MO (STUDY DURATION: 9 MO), Species: HAMSTER, Strain/Sex: SYRIAN/MALE, Target Tissue: Type of Lesion: TRACHEA: CARCINOMA, Dose [Carcinogen]: 0.5% IN 1 ML PHOSPHATE-BUFFERED SALINE 1/WK FOR 12 WK
  tumour outcome (control, treated, inhibition, significance): 4/63 (6%), 11/62 (18%), -200%, not significant
Dose [Inhibitor]: 343 MG/KG DIET DAILY STARTING 1 WK AFTER LAST CARCINOGEN TREATMENT AND CONTINUING FOR 6 MO (STUDY DURATION: 9 MO), Species: HAMSTER, Strain/Sex: SYRIAN/MALE, Target Tissue: Type of Lesion: TRACHEA: EPITHELIAL NEOPLASM, Dose [Carcinogen]: 0.5% IN 1 ML PHOSPHATE-BUFFERED SALINE 1/WK FOR 12 WK
  tumour outcome (control, treated, inhibition, significance): 10/63 (16%), 17/62 (27%), -69%, not significant
Dose [Inhibitor]: 343 MG/KG IN DIET DAILY FOR 6 MO STARTING 1 WK AFTER FINAL CARCINOGEN DOSE (STUDY DURATION: 9 MO), Species: HAMSTER, Strain/Sex: SYRIAN/MALE, Target Tissue: Type of Lesion: TRACHEA: BENIGN EPITHELIAL NEOPLASM, Dose [Carcinogen]: 0.5% SOLUTION FOR 5 SECOND EXPOSURE 1/WK FOR 12 WK
  tumour outcome (control, treated, inhibition, significance): 6/63 (10%), 6/62 (10%), 0%, not significant
Dose [Inhibitor]: 343 MG/KG IN DIET DAILY FOR 6 MO STARTING 1 WK AFTER FINAL CARCINOGEN DOSE (STUDY DURATION: 9 MO), Species: HAMSTER, Strain/Sex: SYRIAN/MALE, Target Tissue: Type of Lesion: TRACHEA: CARCINOMA, Dose [Carcinogen]: 0.5% SOLUTION FOR 5 SECOND EXPOSURE 1/WK FOR 12 WK
  tumour outcome (control, treated, inhibition, significance): 4/63 (6%), 11/62 (18%), -200%, not significant
Dose [Inhibitor]: 343 MG/KG IN DIET DAILY FOR 6 MO STARTING 1 WK AFTER FINAL CARCINOGEN DOSE (STUDY DURATION: 9 MO), Species: HAMSTER, Strain/Sex: SYRIAN/MALE, Target Tissue: Type of Lesion: TRACHEA: EPITHELIAL NEOPLASM, Dose [Carcinogen]: 0.5% SOLUTION FOR 5 SECOND EXPOSURE 1/WK FOR 12 WK
  tumour outcome (control, treated, inhibition, significance): 10/63 (16%), 17/62 (27%), -69%, not significant
Dose [Inhibitor]: 686 MG/KG DIET DAILY FOR 24 WK STARTING 5 D AFTER LAST DOSE OF CARCINOGEN (STUDY DURATION: 32 WK), Species: RAT, Strain/Sex: F344/MALE, Target Tissue: Type of Lesion: COLON: SARCOMA, Dose [Carcinogen]: 0.5 MG 2/WK FOR 8 WK
  tumour outcome (control, treated, inhibition, significance): 5/40 (13%), 1/40 (3%), 77%, not calculated
Dose [Inhibitor]: 686 MG/KG DIET DAILY FOR 24 WK STARTING 5 D AFTER LAST DOSE OF CARCINOGEN (STUDY DURATION: 32 WK), Species: RAT, Strain/Sex: F344/MALE, Target Tissue: Type of Lesion: COLON: TUMOR, Dose [Carcinogen]: 0.5 MG 2/WK FOR 8 WK
  tumour outcome (control, treated, inhibition, significance): 60%, 68%, -13%, not significant
Dose [Inhibitor]: 686 MG/KG DIET DAILY FOR 38 WK STARTING 5 D AFTER LAST DOSE OF CARCINOGEN (STUDY DURATION: 44 WK), Species: RAT, Strain/Sex: F344/MALE, Target Tissue: Type of Lesion: COLON: MESOTHELIOMA, Dose [Carcinogen]: 0.5 MG, 2/WK FOR 6 WK STARTING 6 WK PRIOR TO AGENT TREATMENT
  tumour outcome (control, treated, inhibition, significance): 1/50 (2%), 2/49 (1%), 50%, not calculated
Dose [Inhibitor]: 686 MG/KG DIET DAILY FOR 38 WK STARTING 5 D AFTER LAST DOSE OF CARCINOGEN (STUDY DURATION: 44 WK), Species: RAT, Strain/Sex: F344/MALE, Target Tissue: Type of Lesion: COLON: TUMOR, Dose [Carcinogen]: 0.5 MG 2/WK FOR 6 WK
  tumour outcome (control, treated, inhibition, significance): 62%, 61%, 2%, not significant
Dose [Inhibitor]: 686 MG/KG DIET DAILY FOR 48 WK STARTING 5 D AFTER LAST DOSE OF CARCINOGEN (STUDY DURATION: 52 WK), Species: RAT, Strain/Sex: F344/MALE, Target Tissue: Type of Lesion: COLON: TUMOR, Dose [Carcinogen]: 0.5 MG 2/WK FOR 4 WK
  tumour outcome (control, treated, inhibition, significance): 31%, 27%, 13%, not significant
